According to patent publication US20250145585A1, “HETEROCYCLIC INHIBITORS OF IGF-1R FOR TREATMENT OF DISEASE” (HORIZON THERAPEUTICS IRELAND DAC, priority 2023, published 2025):

Each compound was assayed against T1, IGF-1R (Homo sapiens, UniProt P08069) (assay: Example B-2: IGF-1R Assay (PathHunter cell lines, EC80 agonist challenge, chemiluminescent detection)). Settings: PathHunter cells, compound 60 minutes at 37° C., EC80 agonist 3 hours; read-out: IC50, Biological Activity against IGF-1R (Table B2).
T1 construct: expressed in transfected cells
Assay type: cell-based
In short: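 PathHunter cells were pre-incubated with compound for 60 min at 37° C (1% vehicle), then challenged with EC80 agonist for 3 h at room temperature. Chemiluminescent detection after 1 h gave % inhibition relative to EC80 and vehicle controls, from which IC50 was derived.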

T1 sequence (P08069 31-1367): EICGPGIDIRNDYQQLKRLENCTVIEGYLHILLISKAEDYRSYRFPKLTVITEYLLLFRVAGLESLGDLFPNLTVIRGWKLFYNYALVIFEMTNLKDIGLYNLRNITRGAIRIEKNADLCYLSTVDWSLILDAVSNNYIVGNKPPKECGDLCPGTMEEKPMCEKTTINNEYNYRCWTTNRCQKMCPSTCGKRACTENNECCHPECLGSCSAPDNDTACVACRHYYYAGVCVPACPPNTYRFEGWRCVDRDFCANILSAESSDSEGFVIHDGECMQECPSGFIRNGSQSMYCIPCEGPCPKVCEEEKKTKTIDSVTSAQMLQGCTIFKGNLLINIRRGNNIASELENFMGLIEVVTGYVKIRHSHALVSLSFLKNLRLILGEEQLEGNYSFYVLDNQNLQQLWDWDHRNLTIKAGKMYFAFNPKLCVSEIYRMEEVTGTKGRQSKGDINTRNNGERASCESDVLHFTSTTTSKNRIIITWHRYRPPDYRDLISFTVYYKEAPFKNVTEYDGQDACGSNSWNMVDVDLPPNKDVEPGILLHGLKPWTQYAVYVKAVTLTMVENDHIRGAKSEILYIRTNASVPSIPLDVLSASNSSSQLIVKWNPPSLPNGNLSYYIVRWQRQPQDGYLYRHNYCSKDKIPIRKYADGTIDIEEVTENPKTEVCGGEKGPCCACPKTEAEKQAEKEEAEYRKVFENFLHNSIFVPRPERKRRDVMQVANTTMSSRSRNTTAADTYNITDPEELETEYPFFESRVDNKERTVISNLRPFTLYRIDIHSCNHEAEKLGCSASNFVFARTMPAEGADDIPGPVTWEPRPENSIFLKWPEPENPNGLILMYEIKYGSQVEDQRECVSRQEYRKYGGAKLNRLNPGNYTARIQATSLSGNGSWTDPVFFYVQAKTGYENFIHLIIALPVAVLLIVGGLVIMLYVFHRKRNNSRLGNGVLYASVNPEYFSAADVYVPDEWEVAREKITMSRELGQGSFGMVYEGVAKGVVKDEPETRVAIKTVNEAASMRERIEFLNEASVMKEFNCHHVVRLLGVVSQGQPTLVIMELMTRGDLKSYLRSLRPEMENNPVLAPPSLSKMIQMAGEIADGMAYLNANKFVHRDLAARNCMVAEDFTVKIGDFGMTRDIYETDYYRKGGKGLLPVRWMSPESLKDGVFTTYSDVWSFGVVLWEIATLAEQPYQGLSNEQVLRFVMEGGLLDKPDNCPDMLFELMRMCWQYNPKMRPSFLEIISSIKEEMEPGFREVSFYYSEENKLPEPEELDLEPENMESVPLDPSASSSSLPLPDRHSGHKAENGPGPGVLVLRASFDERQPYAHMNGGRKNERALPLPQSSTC

Compound	IC50 [nM]
COC[C@@H](C)Nc1cc(CN2C(=O)N(c3ccc4c(c3)N(S(C)(=O)=O)CC4(C)C)C(=O)C2(C)C)ccn1 [Compound 203, (R)-3-(3,3-dimethyl-1-(methylsulfonyl)indolin-6-yl)-1-((2-((1-methoxypropan-2-yl)amino)pyridin-4-yl)methyl)-5,5-dimethylimidazolidine-2,4-dione]	≤ 500
CN1CC(C)(C)c2ccc(N3C(=O)N(Cc4ccnc(N[C@H]5CCOC5)c4)C(C)(C)C3=O)cc21 [Compound 206, (S)-5,5-dimethyl-1-((2-((tetrahydrofuran-3-yl)amino)pyridin-4-yl)methyl)-3-(1,3,3-trimethylindolin-6-yl)imidazolidine-2,4-dione]	500 to 2000
CC1(C)CN(S(C)(=O)=O)c2cc(N3C(=O)N(Cc4ccnc(N[C@H]5[C@@H]6COC[C@@H]65)c4)C(C)(C)C3=O)ccc21 [Compound 207, 1-((2-(((1R,5S,6r)-3-oxabicyclo[3.1.0]hexan-6-yl)amino)pyridin-4-yl)methyl)-3-(3,3-dimethyl-1-(methylsulfonyl)indolin-6-yl)-5,5-dimethylimidazolidine-2,4-dione]	≤ 500
CC1(C)CN(S(C)(=O)=O)c2cc(N3C(=O)N(Cc4ccnc(N[C@@H]5C[C@@H]5F)c4)C(C)(C)C3=O)ccc21 [Compound 208, 3-(3,3-dimethyl-1-(methylsulfonyl)indolin-6-yl)-1-((2-(((1R,2S)-2-fluorocyclopropyl)amino)pyridin-4-yl)methyl)-5,5-dimethylimidazolidine-2,4-dione]	≤ 500
CC1(C)CN(S(C)(=O)=O)c2cc(N3C(=O)N(Cc4ccnc(NC5CCOCC5)c4)C(C)(C)C3=O)ccc21 [Compound 209, 3-(3,3-dimethyl-1-(methylsulfonyl)indolin-6-yl)-5,5-dimethyl-1-((2-((tetrahydro-2H-pyran-4-yl)amino)pyridin-4-yl)methyl)imidazolidine-2,4-dione]	≤ 500
CN1CC(C)(C)c2ccc(N3C(=O)N(Cc4ccnc(NC5CCOCC5)c4)C(C)(C)C3=O)cc21 [Compound 210, 5,5-dimethyl-1-((2-((tetrahydro-2H-pyran-4-yl)amino)pyridin-4-yl)methyl)-3-(1,3,3-trimethylindolin-6-yl)imidazolidine-2,4-dione]	≤ 500
COC[C@@H](C)Nc1cc(CN2C(=O)N(c3ccc4c(c3)N(S(C)(=O)=O)CC43CC3)C(=O)C2(C)C)ccn1 [Compound 213, (R)-1-((2-((1-methoxypropan-2-yl)amino)pyridin-4-yl)methyl)-5,5-dimethyl-3-(1′-(methylsulfonyl)spiro[cyclopropane-1,3′-indolin]-6′-yl)imidazolidine-2,4-dione]	≤ 500
CN1CC2(CCC2)c2ccc(N3C(=O)N(Cc4ccnc(NC5CCOCC5)c4)C(C)(C)C3=O)cc21 [Compound 214, 5,5-dimethyl-3-(1′-methylspiro[cyclobutane-1,3′-indolin]-6′-yl)-1-((2-((tetrahydro-2H-pyran-4-yl)amino)pyridin-4-yl)methyl)imidazolidine-2,4-dione]	≤ 500
C[C@@H](CC#N)Nc1cc(CN2C(=O)N(c3ccc4c(c3)N(S(C)(=O)=O)CC4(C)C)C(=O)C2(C)C)ccn1 [Compound 215, (S)-3-((4-((3-(3,3-dimethyl-1-(methylsulfonyl)indolin-6-yl)-5,5-dimethyl-2,4-dioxoimidazolidin-1-yl)methyl)pyridin-2-yl)amino)butanenitrile]	≤ 500
C[C@@H](CC#N)Nc1cc(CN2C(=O)N(c3ccc4c(c3)N(C)CC4(C)C)C(=O)C2(C)C)ccn1 [Compound 217, (S)-3-((4-((5,5-dimethyl-2,4-dioxo-3-(1,3,3-trimethylindolin-6-yl)imidazolidin-1-yl)methyl)pyridin-2-yl)amino)butanenitrile]	≤ 500
CN1CC(C)(C)c2ccc(N3C(=O)N(Cc4ccnc(N[C@H]5[C@@H]6COC[C@@H]65)c4)C(C)(C)C3=O)cc21 [Compound 218, 1-((2-(((1R,5S,6r)-3-oxabicyclo[3.1.0]hexan-6-yl)amino)pyridin-4-yl)methyl)-5,5-dimethyl-3-(1,3,3-trimethylindolin-6-yl)imidazolidine-2,4-dione]	≤ 500
COCCC(C)Nc1cc(CN2C(=O)N(c3ccc4c(c3)N(S(C)(=O)=O)CC4(C)C)C(=O)C2(C)C)ccn1 (stereo not shown) [Compound 219, 3-(3,3-dimethyl-1-(methylsulfonyl)indolin-6-yl)-1-((2-((4-methoxybutan-2-yl)amino)pyridin-4-yl)methyl)-5,5-dimethylimidazolidine-2,4-dione]	≤ 500
COCCOC[C@@H](C)Nc1cc(CN2C(=O)N(c3ccc4c(c3)N(S(C)(=O)=O)CC4(C)C)C(=O)C2(C)C)ccn1 [Compound 224, (R)-3-(3,3-dimethyl-1-(methylsulfonyl)indolin-6-yl)-1-((2-((1-(2-methoxyethoxy)propan-2-yl)amino)pyridin-4-yl)methyl)-5,5-dimethylimidazolidine-2,4-dione]	≤ 500
COCCN1CC(C)(C)c2ccc(N3C(=O)N(Cc4ccnc(NC5CCOCC5)c4)C(C)(C)C3=O)cc21 [Compound 227, 3-(1-(2-methoxyethyl)-3,3-dimethylindolin-6-yl)-5,5-dimethyl-1-((2-((tetrahydro-2H-pyran-4-yl)amino)pyridin-4-yl)methyl)imidazolidine-2,4-dione]	≤ 500
COCCS(=O)(=O)N1CC(C)(C)c2ccc(N3C(=O)N(Cc4ccnc(NC5CCOCC5)c4)C(C)(C)C3=O)cc21 [Compound 228, 3-(1-((2-methoxyethyl)sulfonyl)-3,3-dimethylindolin-6-yl)-5,5-dimethyl-1-((2-((tetrahydro-2H-pyran-4-yl)amino)pyridin-4-yl)methyl)imidazolidine-2,4-dione]	≤ 500

Further lines, results first:

IC50 [nM]	Compound
≤ 500	CC1(C)C(=O)N(c2ccc3c(c2)N(S(C)(=O)=O)CC32CCC2)C(=O)N1Cc1ccnc(N[C@H]2CCOC2)c1 [Compound 204, (S)-5,5-dimethyl-3-(1′-(methylsulfonyl)spiro[cyclobutane-1,3′-indolin]-6′-yl)-1-((2-((tetrahydrofuran-3-yl)amino)pyridin-4-yl)methyl)imidazolidine-2,4-dione]
≤ 500	COC[C@@H](C)Nc1cc(CN2C(=O)N(c3ccc4c(c3)N(S(C)(=O)=O)CC43CCC3)C(=O)C2(C)C)ccn1 [Compound 205, (R)-1-((2-((1-methoxypropan-2-yl)amino)pyridin-4-yl)methyl)-5,5-dimethyl-3-(1′-(methylsulfonyl)spiro[cyclobutane-1,3′-indolin]-6′-yl)imidazolidine-2,4-dione]
≤ 500	CC1(C)C(=O)N(c2ccc3c(c2)N(S(C)(=O)=O)CC32CCC2)C(=O)N1Cc1ccnc(NC2CCOCC2)c1 [Compound 211, 5,5-dimethyl-3-(1′-(methylsulfonyl)spiro[cyclobutane-1,3′-indolin]-6′-yl)-1-((2-((tetrahydro-2H-pyran-4-yl)amino)pyridin-4-yl)methyl)imidazolidine-2,4-dione]
≤ 500	CC1(C)C(=O)N(c2ccc3c(c2)N(S(C)(=O)=O)CC32CC2)C(=O)N1Cc1ccnc(NC2CCOCC2)c1 [Compound 212, 5,5-dimethyl-3-(1′-(methylsulfonyl)spiro[cyclopropane-1,3′-indolin]-6′-yl)-1-((2-((tetrahydro-2H-pyran-4-yl)amino)pyridin-4-yl)methyl)imidazolidine-2,4-dione]
≤ 500	CC1(C)C(=O)N(c2ccc3c(c2)N(S(C)(=O)=O)CC32CCC2)C(=O)N1Cc1ccnc(N[C@H]2[C@@H]3COC[C@@H]32)c1 [Compound 216, 1-((2-(((1R,5S,6r)-3-oxabicyclo[3.1.0]hexan-6-yl)amino)pyridin-4-yl)methyl)-5,5-dimethyl-3-(1′-(methylsulfonyl)spiro[cyclobutane-1,3′-indolin]-6′-yl)imidazolidine-2,4-dione]
≤ 500	C[C@@H](CC#N)Nc1cc(CN2C(=O)N(c3ccc4c(c3)N(S(C)(=O)=O)CC43CCC3)C(=O)C2(C)C)ccn1 [Compound 221, (S)-3-((4-((5,5-dimethyl-3-(1′-(methylsulfonyl)spiro[cyclobutane-1,3′-indolin]-6′-yl)-2,4-dioxoimidazolidin-1-yl)methyl)pyridin-2-yl)amino)butanenitrile]
≤ 500	CC1(C)C(=O)N(c2ccc3c(c2)N(S(C)(=O)=O)CC32CC2)C(=O)N1Cc1ccnc(N[C@H]2[C@@H]3COC[C@@H]32)c1 [Compound 222, 1-((2-(((1R,5S,6r)-3-oxabicyclo[3.1.0]hexan-6-yl)amino)pyridin-4-yl)methyl)-5,5-dimethyl-3-(1′-(methylsulfonyl)spiro[cyclopropane-1,3′-indolin]-6′-yl)imidazolidine-2,4-dione]
≤ 500	CC1(C)C(=O)N(c2ccc3c(c2)N(S(C)(=O)=O)CC32CC2)C(=O)N1Cc1ccnc(N[C@H]2CCOC2)c1 [Compound 223, (S)-5,5-dimethyl-3-(1′-(methylsulfonyl)spiro[cyclopropane-1,3′-indolin]-6′-yl)-1-((2-((tetrahydrofuran-3-yl)amino)pyridin-4-yl)methyl)imidazolidine-2,4-dione]
≤ 500	CC(Nc1cc(CN2C(=O)N(c3ccc4c(c3)N(S(C)(=O)=O)CC43CCC3)C(=O)C2(C)C)ccn1)C1CCOC1 (stereo not shown) [Compound 225, 5,5-dimethyl-3-(1′-(methylsulfonyl)spiro[cyclobutane-1,3′-indolin]-6′-yl)-1-((2-((1-(tetrahydrofuran-3-yl)ethyl)amino)pyridin-4-yl)methyl)imidazolidine-2,4-dione]
≤ 500	CC1(C)C(=O)N(c2ccc3c(c2)N(S(C)(=O)=O)CC32CCC2)C(=O)N1Cc1ccnc(NCC2CCOC2)c1 (stereo not shown) [Compound 226, 5,5-dimethyl-3-(1′-(methylsulfonyl)spiro[cyclobutane-1,3′-indolin]-6′-yl)-1-((2-(((tetrahydrofuran-3-yl)methyl)amino)pyridin-4-yl)methyl)imidazolidine-2,4-dione]
